pIC50: −log10 of the molar value. Where two headings read alike, the source gives them in different places.
Tests used:
[1] = prior art; cited from earlier work
[2] = in vivo; conditions: rat, po
[3] = tested on: acetylcholinesterase; conditions: cited from earlier work
[4] = tested on: patients; conditions: prior art, cited from earlier work; for Clinical effects in patients (in words): mental diseases / Alzheimer's disease
[5] = cited from earlier work
[6] = biological target: T1, acetylcholinesterase from human red blood cells (Homo sapiens, UniProt P22303); test: Inhibition of acetylcholinesterase from human erythrocyte (Ellman colorimetric method); type: biochemical
T1 construct: purchased Sigma Chemical; host or cells: human erythrocyte
T1 sequence (P22303 32-617 isoform P22303-2 limits assumed): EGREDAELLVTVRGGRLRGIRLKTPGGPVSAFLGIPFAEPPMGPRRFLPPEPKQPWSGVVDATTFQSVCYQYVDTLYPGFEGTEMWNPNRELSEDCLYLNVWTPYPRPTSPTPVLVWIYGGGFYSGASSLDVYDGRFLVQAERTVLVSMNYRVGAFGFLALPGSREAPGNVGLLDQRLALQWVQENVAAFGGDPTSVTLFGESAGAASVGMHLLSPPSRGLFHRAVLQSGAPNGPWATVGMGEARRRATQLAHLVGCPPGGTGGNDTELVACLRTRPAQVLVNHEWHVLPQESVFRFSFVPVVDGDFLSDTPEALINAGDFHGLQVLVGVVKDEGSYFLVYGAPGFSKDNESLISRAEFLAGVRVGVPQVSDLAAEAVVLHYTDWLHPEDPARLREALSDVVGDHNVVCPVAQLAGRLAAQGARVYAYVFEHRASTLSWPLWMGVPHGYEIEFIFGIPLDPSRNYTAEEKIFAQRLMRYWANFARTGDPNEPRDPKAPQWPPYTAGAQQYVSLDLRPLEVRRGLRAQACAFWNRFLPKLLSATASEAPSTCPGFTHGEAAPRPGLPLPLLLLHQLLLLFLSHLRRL

[7] = biological target: T2, butyrylcholinesterase from human serum (Homo sapiens, UniProt P06276); test: Inhibition of butyrylcholinesterase from human serum (Ellman colorimetric method); type: biochemical
T2 construct: purchased Sigma Chemical; host or cells: human serum
T2 sequence (P06276 29-602): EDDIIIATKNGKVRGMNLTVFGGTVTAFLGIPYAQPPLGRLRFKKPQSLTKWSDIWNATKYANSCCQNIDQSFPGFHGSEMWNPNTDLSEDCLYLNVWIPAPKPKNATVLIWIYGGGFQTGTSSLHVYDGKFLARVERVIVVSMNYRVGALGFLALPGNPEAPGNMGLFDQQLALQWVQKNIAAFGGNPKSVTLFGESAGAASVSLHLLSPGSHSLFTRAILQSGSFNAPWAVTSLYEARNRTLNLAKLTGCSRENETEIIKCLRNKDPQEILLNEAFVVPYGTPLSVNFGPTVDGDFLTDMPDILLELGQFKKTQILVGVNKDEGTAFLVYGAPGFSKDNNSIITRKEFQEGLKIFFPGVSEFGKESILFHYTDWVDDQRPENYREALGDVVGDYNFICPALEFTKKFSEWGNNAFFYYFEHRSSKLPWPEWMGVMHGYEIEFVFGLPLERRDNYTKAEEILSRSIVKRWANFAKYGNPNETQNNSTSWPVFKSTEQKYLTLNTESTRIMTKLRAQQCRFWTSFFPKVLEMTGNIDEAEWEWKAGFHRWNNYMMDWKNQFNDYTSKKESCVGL

[8] = biological target: T3, acetylcholinesterase from electric eel (Electrophorus electricus, UniProt O42275); test: biochemical
T3 construct: purchased Sigma Chemical; host or cells: electric eel
T3 sequence (O42275 24-633): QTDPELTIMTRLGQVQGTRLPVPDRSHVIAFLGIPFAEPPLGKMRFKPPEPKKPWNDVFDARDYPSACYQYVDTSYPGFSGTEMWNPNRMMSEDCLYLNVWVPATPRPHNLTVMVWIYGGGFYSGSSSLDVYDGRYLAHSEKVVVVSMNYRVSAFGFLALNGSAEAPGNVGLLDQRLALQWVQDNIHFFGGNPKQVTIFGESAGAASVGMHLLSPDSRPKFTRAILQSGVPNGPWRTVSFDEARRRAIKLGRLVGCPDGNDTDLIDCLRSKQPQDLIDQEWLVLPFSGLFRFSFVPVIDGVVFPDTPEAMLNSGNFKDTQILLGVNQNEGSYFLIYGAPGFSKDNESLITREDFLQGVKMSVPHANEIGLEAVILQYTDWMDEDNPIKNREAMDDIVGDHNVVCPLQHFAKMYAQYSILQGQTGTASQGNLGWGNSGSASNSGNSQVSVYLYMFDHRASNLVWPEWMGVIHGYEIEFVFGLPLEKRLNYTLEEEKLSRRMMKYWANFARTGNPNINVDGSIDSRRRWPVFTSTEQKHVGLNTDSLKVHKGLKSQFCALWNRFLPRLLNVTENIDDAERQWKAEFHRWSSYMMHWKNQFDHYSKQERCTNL

[9] = biological target: T4, acetylcholinesterase from homogenate of in toto rat brain (Rattus norvegicus, UniProt P37136); test: Inhibition of acetylcholinesterase from rat brain homogenate; type: biochemical; conditions: contact time 10'; read-out: Cholinesterase Inhibition IC50, AChE rat brain
T4 construct: acetylcholinesterase from homogenate of in toto rat brain; from tissue; host or cells: rat whole brain homogenate
T4 sequence (P37136 32-614): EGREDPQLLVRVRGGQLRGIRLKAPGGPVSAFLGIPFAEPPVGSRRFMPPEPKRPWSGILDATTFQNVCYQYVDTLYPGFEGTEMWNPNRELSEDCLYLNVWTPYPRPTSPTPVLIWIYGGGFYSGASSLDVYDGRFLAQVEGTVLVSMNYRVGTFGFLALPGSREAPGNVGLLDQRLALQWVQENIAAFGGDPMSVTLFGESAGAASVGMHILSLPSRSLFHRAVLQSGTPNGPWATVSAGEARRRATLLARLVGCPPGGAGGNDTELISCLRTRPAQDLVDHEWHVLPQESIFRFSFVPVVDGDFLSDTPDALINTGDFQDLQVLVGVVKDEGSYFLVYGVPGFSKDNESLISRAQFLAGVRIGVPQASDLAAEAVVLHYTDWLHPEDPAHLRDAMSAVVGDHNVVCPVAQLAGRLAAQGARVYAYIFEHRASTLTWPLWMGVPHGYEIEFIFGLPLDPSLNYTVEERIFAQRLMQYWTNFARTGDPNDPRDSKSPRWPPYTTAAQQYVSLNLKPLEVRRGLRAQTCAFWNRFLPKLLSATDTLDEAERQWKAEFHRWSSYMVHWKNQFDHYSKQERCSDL
Source text: The compounds prepared as per the Examples reported above and several other compounds under the present invention (Table 1) were pharmacologically tested with a view to determining their inhibitory effect on acetylcholinesterase and butyrylcholinesterase activity. The used method had been developed by Ellman et al. (Ellman, G. L., Courtney, K. D., Andres, V., Featherstone, R. M.: "A New and Rapid Colorimetric Determination of Acetylcholinesterase Activity", Biochem. Pharm. 7, 88, 1961).
AChE rat brain: acetylcholinesterase from homogenate of in toto rat brain
t: contact time (minutes)
IC50 M: median inhibitory molar concentration

[10] = Cholinesterase Inhibition IC50, AChE hRBC, contact time 30'
[11] = Cholinesterase Inhibition IC50, AChE hRBC, contact time 60'
[12] = Cholinesterase Inhibition IC50, AChE E.eel, contact time 10'
[13] = contact time 10', read-out: Cholinesterase Inhibition IC50, AChE hRBC

| SMILES | Acetylcholinesterase inhibition, prior art (in words) [3] | pIC50 [7] | pIC50 [6, 10] | pIC50 [8, 12] | pIC50 [9] | pIC50 [6, 13] | also measured |
| --- | --- | --- | --- | --- | --- | --- | --- |
| CNC(=O)Oc1ccc2c(c1)[C@]1(C)CCN(C)[C@@H]1N2C [ESERINE, physostigmine] | potent natural inhibitor of acetylcholinesterase | – | – | – | – | – | Pharmacokinetic properties (in words) [1]: unfavourable pharmacokinetic properties; LD50 [2]: 4.5 mg/kg; Clinical effects in patients (in words) [4]: beneficial effects on patients affected by mental diseases |
| CCCCCCCNC(=O)Oc1ccc2c(c1)[C@]1(C)CCN(C)[C@@H]1N2C [MF 201, heptylcarbamic ester of eseroline, reference compound] | less potent acetylcholinesterase inhibitor than physostigmine | 7.40 | – | – | – | – | Side effects, prior art (in words) [5]: reduced side effects; Pharmacokinetic properties (in words) [1]: better pharmacokinetic properties; pIC50 ([6]; read-out: Cholinesterase Inhibition IC50, AChE hRBC): 6.54; pIC50 ([8]; contact time 10', read-out: Cholinesterase Inhibition IC50, AChE E.eel): 6.26; pIC50 ([8]; contact time 30', read-out: Cholinesterase Inhibition IC50, AChE E.eel): 6.39; pIC50 ([8]; contact time 60', read-out: Cholinesterase Inhibition IC50, AChE E.eel): 6.36; Neutropenia in patients (in words) ([4]; clinical pilot test, Alzheimer's disease): neutropenia phenomena in some, though very few, patients; Clinical effects in patients (in words) [4]: good results in a clinical pilot test on patients affected by Alzheimer's disease |
| CN1CC[C@@]2(C)c3cc(OC(=O)N4CCOCC4)ccc3N(C)[C@@H]12 [MF 215, reference compound] | low acetylcholinesterase activity depression | – | – | – | – | – | Activity compared with the compounds of this invention (in words) ([6]; compared with the compounds of this invention): much lower activity; pIC50 ([6]; read-out: Cholinesterase Inhibition IC50, AChE hRBC, contact time 10'): 4.72; pIC50 ([6]; read-out: Cholinesterase Inhibition IC50, AChE hRBC, contact time 30'): 4.92; pIC50 ([6]; read-out: Cholinesterase Inhibition IC50, AChE hRBC, contact time 60'): 4.80; pIC50 ([7]; read-out: Cholinesterase Inhibition IC50, BuChE hserum, contact time 10'): 3.06 |
| CN1CC[C@@]2(C)c3cc(OC(=O)NCCCCCCCCN4CCOCC4)ccc3N(C)[C@@H]12 [MF 217, N-morpholinyloctylcarbamoyleseroline] | – | 6.77 | 7.12 | 6.48 | 6.06 | – | pIC50 ([6]; Cholinesterase Inhibition IC50, AChE hRBC, contact time 10'): 7.00; pIC50 [6, 11]: 7.20; Activity against human red blood cells acetylcholinesterase (in words) ([6]; Table 2 results): Particularly active; LD50 [2]: 23 mg/kg |
| CN1CC[C@@]2(C)c3cc(OC(=O)NCCCCCCCN4CCOCC4)ccc3N(C)[C@@H]12 [MF 224, N-morpholinylheptylcarbamoyleseroline] | – | 6.52 | 6.77 | 5.80 | 5.39 | 6.42 | – |
| CN1CC[C@@]2(C)c3cc(OC(=O)NCCCCCN4CCOCC4)ccc3N(C)[C@@H]12 [MF 225, N-morpholinylpentylcarbamoyleseroline] | – | – | 5.66 | 3.48 | 3.30 | 5.12 | – |
| CN1CC[C@@]2(C)c3cc(OC(=O)NCCCCCCN4CCOCC4)ccc3N(C)[C@@H]12 [MF 227, N-morpholinylhexylcarbamoyleseroline] | – | 7.00 | 6.42 | 4.92 | 5.09 | 6.03 | – |
| CN1CC[C@@]2(C)c3cc(OC(=O)NCCCCCCCCCCCCN4CCOCC4)ccc3N(C)[C@@H]12 [MF 228, N-morpholinyldodecylcarbamoyleseroline] | – | 7.00 | 7.22 | 7.15 | 6.42 | 7.15 | pIC50 [6, 11]: 7.52 |
